Source: ChEMBL document CHEMBL1667811, “Influence of pKa on the biotransformation of indene H1-antihistamines by CYP2D6” (Bioorg Med Chem Lett, 2011)

Columns and labels:
hERG (KCNH2) = hERG (KCNH2) (Homo sapiens, UniProt Q12809); assay: Displacement of labeled dofetilide from human ERG at 3 uM; settings: probe labeled dofetilide
Cytochrome P450 2D6 = Cytochrome P450 2D6 (Homo sapiens, UniProt P10635)
Histamine H1 receptor = Histamine H1 receptor (Homo sapiens, UniProt P35367); assay: Binding affinity to histamine H1 receptor
Cytochrome P450 3A4 = Cytochrome P450 3A4 (Homo sapiens, UniProt P08684)
[1] = Drug uptake in rat brain at 1 mg/kg, iv after 4 hrs; type: ADME, organism-based; set-up: dose 1 mg/kg, route intravenous; settings: read-out: Drug uptake
[2] = Ratio of drug level in brain to plasma in rat at 1 mg/kg, iv after 4 hrs; type: ADME, organism-based; set-up: dose 1 mg/kg, route intravenous; settings: read-out: BPR

Cytochrome P450 3A4, sequence (P08684 whole entry): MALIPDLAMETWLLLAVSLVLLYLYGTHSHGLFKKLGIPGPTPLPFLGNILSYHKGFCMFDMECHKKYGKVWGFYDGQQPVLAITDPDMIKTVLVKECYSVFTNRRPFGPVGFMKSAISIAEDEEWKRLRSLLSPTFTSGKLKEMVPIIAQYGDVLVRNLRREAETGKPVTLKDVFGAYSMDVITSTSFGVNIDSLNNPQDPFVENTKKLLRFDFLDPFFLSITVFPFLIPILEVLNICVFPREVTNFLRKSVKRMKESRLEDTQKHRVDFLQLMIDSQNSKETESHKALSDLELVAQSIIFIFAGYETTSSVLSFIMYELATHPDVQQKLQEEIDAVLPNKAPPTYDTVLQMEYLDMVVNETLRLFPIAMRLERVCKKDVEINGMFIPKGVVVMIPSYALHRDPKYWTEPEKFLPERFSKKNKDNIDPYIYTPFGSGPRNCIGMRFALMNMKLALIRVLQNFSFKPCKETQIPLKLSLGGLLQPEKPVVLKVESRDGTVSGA
Cytochrome P450 2D6, sequence (P10635 whole entry): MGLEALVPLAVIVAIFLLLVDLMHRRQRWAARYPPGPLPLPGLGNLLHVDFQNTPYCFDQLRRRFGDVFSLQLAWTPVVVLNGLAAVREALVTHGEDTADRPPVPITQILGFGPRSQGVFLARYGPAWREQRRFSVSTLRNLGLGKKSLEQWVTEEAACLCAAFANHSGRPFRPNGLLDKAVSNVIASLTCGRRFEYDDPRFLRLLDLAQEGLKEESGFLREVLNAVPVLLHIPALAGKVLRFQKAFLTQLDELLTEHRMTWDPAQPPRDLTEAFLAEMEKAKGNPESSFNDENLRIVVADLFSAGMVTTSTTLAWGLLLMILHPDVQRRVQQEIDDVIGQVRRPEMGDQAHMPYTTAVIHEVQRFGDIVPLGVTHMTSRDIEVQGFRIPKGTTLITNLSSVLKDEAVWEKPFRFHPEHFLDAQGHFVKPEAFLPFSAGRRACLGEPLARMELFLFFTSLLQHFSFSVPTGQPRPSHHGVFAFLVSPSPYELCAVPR
hERG (KCNH2), sequence (Q12809 whole entry): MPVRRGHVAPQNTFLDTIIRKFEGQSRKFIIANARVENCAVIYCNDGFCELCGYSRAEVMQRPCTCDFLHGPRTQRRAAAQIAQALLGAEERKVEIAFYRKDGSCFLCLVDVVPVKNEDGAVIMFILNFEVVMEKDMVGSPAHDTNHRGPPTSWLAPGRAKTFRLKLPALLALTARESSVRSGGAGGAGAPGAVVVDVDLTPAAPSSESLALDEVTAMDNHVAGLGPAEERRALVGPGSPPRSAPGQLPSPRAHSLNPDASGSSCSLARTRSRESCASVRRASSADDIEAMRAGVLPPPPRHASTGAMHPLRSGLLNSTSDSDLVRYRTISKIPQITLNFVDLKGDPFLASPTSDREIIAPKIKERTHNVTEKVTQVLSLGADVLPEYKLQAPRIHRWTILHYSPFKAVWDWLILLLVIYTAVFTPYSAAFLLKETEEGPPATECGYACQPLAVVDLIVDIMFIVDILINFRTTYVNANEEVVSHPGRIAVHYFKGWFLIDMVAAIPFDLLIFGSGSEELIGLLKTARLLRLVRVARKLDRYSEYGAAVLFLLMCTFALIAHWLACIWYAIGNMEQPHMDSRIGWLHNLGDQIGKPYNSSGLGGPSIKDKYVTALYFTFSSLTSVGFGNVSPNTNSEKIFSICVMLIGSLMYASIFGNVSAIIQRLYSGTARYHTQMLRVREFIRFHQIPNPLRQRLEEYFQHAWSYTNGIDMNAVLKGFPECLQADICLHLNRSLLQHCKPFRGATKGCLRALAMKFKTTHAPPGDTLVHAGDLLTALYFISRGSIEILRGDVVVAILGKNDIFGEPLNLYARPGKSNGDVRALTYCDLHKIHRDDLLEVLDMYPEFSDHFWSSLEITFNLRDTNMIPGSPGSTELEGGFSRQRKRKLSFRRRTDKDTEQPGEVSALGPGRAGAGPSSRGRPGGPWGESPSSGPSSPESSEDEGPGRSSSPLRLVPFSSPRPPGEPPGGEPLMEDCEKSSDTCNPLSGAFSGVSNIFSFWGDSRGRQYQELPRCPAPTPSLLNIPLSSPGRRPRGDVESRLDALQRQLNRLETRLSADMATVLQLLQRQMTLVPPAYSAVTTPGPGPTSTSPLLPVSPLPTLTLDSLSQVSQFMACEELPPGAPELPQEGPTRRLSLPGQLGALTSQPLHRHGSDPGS
Histamine H1 receptor, sequence (P35367 whole entry): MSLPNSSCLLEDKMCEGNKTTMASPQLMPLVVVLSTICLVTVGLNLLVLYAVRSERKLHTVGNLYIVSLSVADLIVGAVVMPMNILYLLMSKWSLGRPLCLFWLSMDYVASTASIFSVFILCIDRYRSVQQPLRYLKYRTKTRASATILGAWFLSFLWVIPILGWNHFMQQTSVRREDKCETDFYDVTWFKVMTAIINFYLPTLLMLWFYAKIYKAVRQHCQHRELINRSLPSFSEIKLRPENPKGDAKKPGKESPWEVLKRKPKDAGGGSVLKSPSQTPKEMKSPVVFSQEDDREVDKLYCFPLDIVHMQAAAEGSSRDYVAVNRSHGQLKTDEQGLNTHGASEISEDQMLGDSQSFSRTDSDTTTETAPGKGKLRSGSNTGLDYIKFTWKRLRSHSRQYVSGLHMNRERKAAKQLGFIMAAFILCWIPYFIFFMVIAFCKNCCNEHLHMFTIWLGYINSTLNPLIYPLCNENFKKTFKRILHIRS

SMILES	inhibition at 3 µM (hERG (KCNH2)) [%]	IC50 (Cytochrome P450 2D6) [µM]	Ki (Histamine H1 receptor) [µM]	IC50 (Cytochrome P450 3A4) [µM]	concentration at 4 h [1] [ng/g]	Kp at 4 h [2]
C[C@H](C1=C(CCN(C)Cc2ncc[nH]2)Cc2ccccc21)c1cnccn1	0	5.85	0.0088	4.42		
C[C@H](C1=C(CCN(C)Cc2ccncc2)Cc2ccccc21)c1cnccn1	0	7.96	0.0049			
C[C@H](C1=C(CCN(C)Cc2cnccn2)Cc2ccccc21)c1cnccn1	0	> 10	0.0247	> 10		
C[C@H](C1=C(CCN(C)CC#N)Cc2ccccc21)c1cnccn1	0	> 10	0.032	> 10		
C[C@H](C1=C(CCN(C)Cc2ccco2)Cc2ccccc21)c1cnccn1	0	4.36	0.0081	2.75		
CCCN(C)CCC1=C(Cc2cnccn2)c2ccccc2C1	0	0.973	0.041	4.04		
C[C@H](C1=C(CCN(C)Cc2nccs2)Cc2ccccc21)c1cnccn1	0	> 10	0.048	2.82		
FC1CN(CCC2=C(Cc3cnccn3)c3ccccc3C2)C1	0	6.47	0.049	> 10		
CCN(C)CCC1=C(Cc2cnccn2)c2ccccc2C1	0	4.35	0.0072	> 10		
FC1CCN(CCC2=C(Cc3cnccn3)c3ccccc3C2)C1 (stereo unspecified)	0	4.29	0.0105	> 10	57	3.9
C[C@H](C1=C(CCN(C)CCF)Cc2ccccc21)c1cnccn1	0	2.61	0.013	> 10		
C[C@H](C1=C(CCN(C)CCC(F)(F)F)Cc2ccccc21)c1cnccn1	0	7.22	0.091	> 5		
C[C@H](C1=C(CCN(C)Cc2ncco2)Cc2ccccc21)c1cnccn1	0	> 10	0.162	4.84		
c1ccc2c(c1)CC(CCN1CCCC1)=C2Cc1cnccn1	0	3.38	0.0028	> 10		
C[C@H](C1=C(CCN(C)CCC#N)Cc2ccccc21)c1cnccn1	0	> 10	0.109	> 10		
C[C@H](C1=C(CCN(C)Cc2nccn2C)Cc2ccccc21)c1cnccn1	0	5.68	0.028	1.54		
C[C@H](C1=C(CCN(C)Cc2cccs2)Cc2ccccc21)c1cnccn1	0	1.43	0.0067	1.83		
c1ccc2c(c1)CC(CCN1CCC1)=C2Cc1cnccn1	0	8.85	0.0043	> 10		
FC1(F)CCN(CCC2=C(Cc3cnccn3)c3ccccc3C2)C1	0	7.53	0.249	1.4		
FC1(F)CN(CCC2=C(Cc3cnccn3)c3ccccc3C2)C1	0	> 10	4.61			
CN(CCF)CCC1=C(Cc2cnccn2)c2ccccc2C1	0	3.09		> 10		
C[C@H](C1=C(CCN(C)CC2CCOCC2)Cc2ccccc21)c1cnccn1	0	9.37	0.0152	> 10		
C[C@H](C1=C(CCN(C)Cc2ccccn2)Cc2ccccc21)c1cnccn1	0	5.71	0.0139	4.78		
